For assay [1], the target named is Myc proto-oncogene protein (Homo sapiens) (UniProt P01106). The assay is described as follows: Inhibition of c-Myc in human LY10 cells assessed as reduction in eIF4B expression at 2 nM incubated for 24 hrs by Western blot analysis. The class given is cell-based. (A western blot detects proteins with antibodies after separation by electrophoresis.)
Assay [2] shares this target. The assay is described as follows: Inhibition of c-Myc in human LY7 cells assessed as reduction in E2F1 expression at 5 nM incubated for 24 hrs by Western blot analysis. It counts as cell-based.
For assay [3] the target is unchanged. The assay is described as follows: Inhibition of c-Myc in human LY10 cells assessed as reduction in E2F1 expression at 2 nM incubated for 24 hrs by Western blot analysis. It counts as cell-based.
For assay [4] the target is unchanged. The assay is described as follows: Inhibition of c-Myc in human LY7 cells assessed as reduction in eIF4B expression at 5 nM incubated for 24 hrs by Western blot analysis. The class given is cell-based.
Assay [5] deals with T1, Casein kinase I isoform epsilon (Homo sapiens, UniProt P49674). The assay is described as follows: Inhibition of CK1epsilon in human LY7 cells assessed as reduction in CK1epsilon autophosphorylation at 10 to 25 uM preincubated for 1 hr followed by addition of PP2A inhibitor calyculin A and measured after 15 to 60 mins by Western blot analysis. It counts as cell-based. The settings on record: dose 10-25 µM, time lower 75.0 min, time upper […].
Target sequence in this assay (P49674 whole entry, looked up, canonical isoform): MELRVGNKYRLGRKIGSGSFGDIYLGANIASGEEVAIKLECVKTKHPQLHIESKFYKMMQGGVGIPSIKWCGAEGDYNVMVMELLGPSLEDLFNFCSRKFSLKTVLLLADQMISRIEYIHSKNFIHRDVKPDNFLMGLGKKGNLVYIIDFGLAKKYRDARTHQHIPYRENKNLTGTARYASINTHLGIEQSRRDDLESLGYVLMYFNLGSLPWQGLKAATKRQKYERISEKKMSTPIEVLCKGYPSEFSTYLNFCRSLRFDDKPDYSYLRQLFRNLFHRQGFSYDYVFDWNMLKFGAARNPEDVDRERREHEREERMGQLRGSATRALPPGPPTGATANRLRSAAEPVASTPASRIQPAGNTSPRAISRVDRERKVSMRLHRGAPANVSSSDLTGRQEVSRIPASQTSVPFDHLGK

Assay [6] concerns the target T1, Casein kinase I isoform epsilon. The assay is described as follows: Inhibition of recombinant human full-length N-terminal GST-tagged CK1epsilon expressed in baculovirus infected Sf9 insect cells using casein as substrate measured after 60 mins by ADP-glo kinase assay. On the technique in general: ADP-Glo first removes unused ATP, then detects ADP through luciferase.
Target sequence in this assay (P49674 whole entry, canonical isoform): as the sequence (P49674 whole entry, looked up, canonical isoform) above

In assay [7] the target is Serine/threonine-protein phosphatase 2A catalytic subunit alpha isoform (Homo sapiens) (UniProt P67775). The assay is described as follows: Inhibition of PP2A in human LY7 cells assessed as increase in CK1epsilon autophosphorylation by Western blot analysis. The class given is cell-based. To be noted: time lower […], time upper 30.0 min.
Sequence of Serine/threonine-protein phosphatase 2A catalytic subunit alpha isoform (Homo sapiens) (P67775 whole entry, canonical isoform): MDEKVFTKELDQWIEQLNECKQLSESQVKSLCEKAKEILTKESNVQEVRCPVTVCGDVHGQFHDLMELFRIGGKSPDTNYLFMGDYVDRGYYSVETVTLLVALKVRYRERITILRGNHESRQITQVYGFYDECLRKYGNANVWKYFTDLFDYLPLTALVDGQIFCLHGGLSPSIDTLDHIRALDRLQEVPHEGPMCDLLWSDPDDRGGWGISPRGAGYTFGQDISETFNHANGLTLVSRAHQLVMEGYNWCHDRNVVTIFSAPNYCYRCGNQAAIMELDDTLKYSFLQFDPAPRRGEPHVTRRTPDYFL
The target of assay [8] is T1, Casein kinase I isoform epsilon. The assay is described as follows: Inhibition of CK1epsilon in human OCILY7 cells transfected with c-myc-5'-UTR-luciferase construct assessed as reduction in c-myc translation at 15 uM incubated for 24 hrs by luciferase reporter gene assay. It counts as cell-based. In general terms: Reporter assays use an easily measured gene product as a stand-in for the process of interest.
Target sequence in this assay (P49674 whole entry, looked up, canonical isoform): as the sequence (P49674 whole entry, looked up, canonical isoform) above

The target is the same in assay [9]. The assay is described as follows: Inhibition of CK1epsilon in human LY7 cells assessed as reduction in CK1epsilon autophosphorylation at 1 uM preincubated for 1 hr followed by addition of PP2A inhibitor calyculin A and measured after 15 to 60 mins by Western blot analysis. The class given is cell-based. The settings on record: time lower 75.0 min, time upper […].
Target sequence in this assay (P49674 whole entry, looked up, canonical isoform): as above

Assay [10] has the same target. The assay is described as follows: Inhibition of CK1epsilon in human LY7 cells assessed as reduction in c-Myc expression at 15 to 50 uM measured after 24 hrs by Western blot analysis. The class given is cell-based. To be noted: dose 15-50 µM.
Target sequence in this assay (P49674 whole entry, looked up, canonical isoform): as above
For assay [11] the target is unchanged. The assay is described as follows: Inhibition of CK1epsilon in human LY7 cells assessed as reduction in 4E-BP1 phosphorylation at 25 uM incubated for 24 hrs in presence of […] inhibitor PF4800567 by Western blot analysis. The class given is cell-based.
Target sequence in this assay (P49674 whole entry, looked up, canonical isoform): as above
The target is the same in assay [12]. The assay is described as follows: Inhibition of CK1epsilon in human LY7 cells assessed as reduction in c-Myc expression at 25 uM incubated for 24 hrs in presence of […] inhibitor PF4800567 by Western blot analysis. The class given is cell-based.
Target sequence in this assay (P49674 whole entry, looked up, canonical isoform): as above
For assay [13] the target is unchanged. The assay is described as follows: Inhibition of recombinant human full-length N-terminal GST-tagged CK1epsilon expressed in baculovirus infected Sf9 insect cells at 50 uM using casein as substrate measured after 60 mins by ADP-glo kinase assay relative to control.

Active and inactive are the calls of the source. No cut-off for these calls is given here. Bounds are passed on as bounds.

Sequence of Myc proto-oncogene protein (Homo sapiens) (P01106 whole entry): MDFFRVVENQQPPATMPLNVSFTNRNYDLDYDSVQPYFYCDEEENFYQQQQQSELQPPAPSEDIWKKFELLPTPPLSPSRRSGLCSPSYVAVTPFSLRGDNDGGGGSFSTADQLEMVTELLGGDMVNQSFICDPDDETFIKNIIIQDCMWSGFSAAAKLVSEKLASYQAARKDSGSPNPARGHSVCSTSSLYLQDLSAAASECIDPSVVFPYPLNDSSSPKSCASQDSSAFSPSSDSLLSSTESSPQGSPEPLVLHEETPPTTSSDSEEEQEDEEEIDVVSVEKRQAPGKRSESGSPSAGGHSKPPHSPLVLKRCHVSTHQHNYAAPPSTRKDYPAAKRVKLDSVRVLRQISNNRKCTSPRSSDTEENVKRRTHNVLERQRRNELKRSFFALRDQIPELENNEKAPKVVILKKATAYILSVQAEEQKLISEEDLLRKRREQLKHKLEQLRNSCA

As to `CC(C)C[C@H](NC(=O)[C@H](Cc1ccccc1)NC(=O)c1cnccn1)B(O)O`, the inhibition entry in assay [1], in assay [2], in assay [3] and in assay [4] was “inactive” each time.
Consider `CC(C)C[C@H](NC(=O)[C@H](CCc1ccccc1)NC(=O)CN1CCOCC1)C(=O)N[C@@H](Cc1ccccc1)C(=O)N[C@@H](CC(C)C)C(=O)[C@@]1(C)CO1`, for which the inhibition result in assay [1], in assay [2], in assay [3] and in assay [4] was “inactive” in each case.
On to `CC(C)Oc1ccc(-c2nn([C@@H](C)c3nc4cccc(F)c4c(=O)n3-c3ccccc3)c3ncnc(N)c23)cc1F`, for which the inhibition entry in [5] is “Active”. Moreover, the EC50 in [6] turned out to be 9.36 µM.
For `COC[C@@H]([C@H](O)[C@H](O)C(=O)NCC[C@H](C)c1nc(/C=C/C[C@@H]2O[C@]3(C[C@@H](O)[C@@H]2C)O[C@H]([C@H](C[C@H](O)[C@H](C)[C@H](O)[C@H](C)/C=C(C)/C(C)=C/C=C/C(C)=C\C#N)OC)[C@H](OP(=O)(O)O)C3(C)C)co1)N(C)C`, in assay [7], the inhibition entry is “Dose-Dependent Effect”.
As for `Nc1ncnc2c1c(COc1cccc(Cl)c1)nn2C1CCOCC1`, the inhibition result in assay [8] is “inactive”. In addition, the inhibition result in [9], in assay [10], in assay [11] and in assay [12] was “Active” each time. In assay [6], the EC50 came out at 0.0074 µM.
Consider `CC[C@@H](c1nc2cccc(F)c2c(=O)n1-c1ccccc1)n1nc(-c2ccc(OC(C)C)c(F)c2)c2c(N)ncnc21`, for which the inhibition in assay [13] is below 50%. In addition, the 50% effective concentration (EC50) in assay [6] amounted to 81.2 µM.

Usually inhibition stands for the percentage by which the read-out fell short of the control. For orientation: EC50 means the concentration that produces a half-maximal response.
